Two compounds from US20230054194A1, “Methods of Treating Cancer” (ARIAGEN, INC., priority 2018, published 2023) can be followed below.

One assay relates to CT26. Nature of the assay: CT-26 subcutaneous syngeneic colon cancer mouse model (Study 4), tumor growth inhibition. The format is in vivo, mouse (BALB/C). The following applies: for TGI(%) / Tumor size (Mean ± SEM): CT-26 model, i.p., ARI compounds 160 mg/kg QD × 15 doses, Anti-PD-1 10 BIW × 5 doses, study end day Day 23. The procedure: (§1) In this example, the in vivo anti-tumor efficacy of ARI-001, ARI-002, ARI-003, and ARI-143 and their combinations with an anti-PD-1 antibody was evaluated using a panel of twelve subcutaneous syngeneic mouse tumor models.
(§2) Eleven subcutaneous syngeneic mouse tumor models were generated by innoculating female BALB/C or C57BL/6 mice with cancer cells at their right lower or right front flank followed by randomization as detailed in Table 4 below.
(§3) A solution of a rat monoclonal anti-mouse PD-1 antibody (isotype IgG2a, κ) at a concentration of 6.61 mg/ml was obtained from BioXcell (InVivoMAb anti-mouse PD-1 (CD279), Clone RMP1-14, Cat #BE0146)) and store at 4° C. The antibody solution was diluted with PBS to obtain a 1 mg/ml dosing solution.
(§4) ARI-001, ARI-002, and ARI-003 powder was stored at −20° C. The powder of each compound was dissolved in DMSO to obtain dosing solutions at 106.7, 80, and 53.33 mg/ml for administration to mice at 160, 120, and 80 mg/kg, respectively. ARI-143 was similarly prepared.
(§5) Twelve studies using the twelve subcutaneous syngeneic mouse tumor models were performed. In each study, 80 mice were enrolled and randomly allocated to eight different study groups, with 10 mice in each study group. The mean tumor size at randomization was approximately 80-120 mm^3 (around 100 mm^3). Randomization was performed based on “Matched distribution” randomization method (StudyDirector™ software, version 3.1.399.19). […] All the drugs and vehicle controls were injected to the mice intraperitoneally.
(§6) After tumor cell inoculation, the animals were checked daily for morbidity and mortality. At the time of routine monitoring, the animals were checked for any effects of tumor growth and treatments on behavior such as mobility, food and water consumption, body weight gain/loss (body weights were measured twice or three times per week after randomization), and any other abnormalities. Mortality and observed clinical signs were recorded for individual animals. Tumor volumes were measured twice or three times weekly after randomization in two dimensions using a caliper, and the volume was expressed in mm^3 using the formula: […]
(§7) where V is tumor volume, L is tumor length (the longest tumor dimension) and W is tumor width (the longest tumor dimension perpendicular to L).
(§8) The study was terminated when the mean tumor volume (MTV) in the vehicle group reached a value of 2,000 mm^3. Tumor growth inhibition (TGI) is an indication of antitumor activity, and expressed as: […]
(§9) where T and C are the MTV (or weight) of the treated and control groups, respectively, on a given day. Statistical analysis of the difference in MTV among the groups was conducted using the data collected on the day when the MTV of the vehicle group reached the humane endpoints, so that TGI could be derived for all or most mice enrolled in the study.
(§10) Statistical analysis of differences in MTV among the groups was conducted by Independent-Samples T Test using the data collected. All data were analyzed with SPSS (Statistical Product and Service Solutions) version 18.0 (IBM, Armonk, N.Y., U.S.). P-values were rounded to three decimal places, with the exception that raw P-values less than 0.001 were stated as P<0.001. All tests were two-sided. P<0.05 was considered to be statistically significant.
FIG. 63 is a graph showing the mean tumor volume on different study days in the study groups as indicated according to Study 4 (CT-26). The study end day was Day 23.

The test system of the next assay is Hepa1-6. Nature of the assay: Hepa1-6 subcutaneous syngeneic liver cancer mouse model (Study 9), tumor growth inhibition. It is filed as in vivo, mouse (C57BL/6). The following applies: for Tumor size / TGI(%): Hepa1-6 model, study end day Day 26; for Tumor size: Mean ± SEM, in mm³. The procedure: as §1, §2, §3, §4, §5, §6, §7, §8, §9, §10
FIG. 68 is a graph showing the mean tumor volume on different study days in the study groups as indicated according to Study 9 (Hepal-6). The study end day was Day 26.

A further assay relates to Renca. Nature of the assay: Renca subcutaneous syngeneic kidney cancer mouse model (Study 8), tumor growth inhibition. It is filed as in vivo, mouse (BALB/C). The following applies: for Tumor size / TGI(%): Renca model, study end day Day 28; for Tumor size: Mean ± SEM, in mm³; for anti-tumor potency of anti-PD-1 antibody combined with the compound, compared to the antibody alone: Renca syngeneic kidney cancer model. The procedure:
as §1, §2, §3, §4, §5, §6, §7, §8, §9, §10
FIG. 67 is a graph showing the mean tumor volume on different study days in the study groups as indicated according to Study 8 (Renca). The study end day was Day 28.

For another assay, the system named is H22. Nature of the assay: H22 subcutaneous syngeneic liver cancer mouse model (Study 11), tumor growth inhibition. The format is in vivo, mouse (BALB/C). The following applies: for Tumor size / TGI(%): H22 model, study end day Day 18; for Tumor size: Mean ± SEM, in mm³. The procedure:
as §1, §2, §3, §4, §5, §6, §7, §8, §9, §10
FIG. 70 is a graph showing the mean tumor volume on different study days in the study groups as indicated according to Study 11 (H22). The study end day was Day 18.

For a further assay, the system named is Pan02. Nature of the assay: Pan02 subcutaneous syngeneic pancreatic cancer mouse model (Study 3), tumor growth inhibition. The format is in vivo, mouse (C57BL/6). As to conditions: for TGI(%) / Tumor size (Mean ± SEM): Pan02 model, i.p., ARI compounds 160 mg/kg QD × 28 doses, Anti-PD-1 10 BIW × 8 doses, study end day Day 32; for anti-tumor potency of anti-PD-1 antibody combined with the compound, compared to the antibody alone: Pan02 syngeneic pancreatic cancer model. The procedure:
as §1, §2, §3, §4, §5, §6, §7, §8, §9, §10
FIG. 62 is a graph showing the mean tumor volume on different study days in the study groups as indicated according to Study 3 (Pan02). The study end day was Day 32.

The next assay concerns EMT-6. Nature of the assay: EMT-6 subcutaneous syngeneic breast cancer mouse model (Study 2 and Study 12), tumor growth inhibition. It is filed as in vivo, mouse (BALB/C). As to conditions: for TGI(%) / Tumor size (Mean ± SEM): EMT-6 model (Study 2), i.p., ARI-001 160/120 mg/kg QD × 15/6 doses, ARI-002 and ARI-003 160 mg/kg QD × 21 doses, Anti-PD-1 10 BIW × 6 doses, study end day Day 27; for anti-tumor potency of anti-PD-1 antibody combined with the compound, compared to the antibody alone or the vehicle / anti-tumor potency of the compound combined with anti-PD-1 antibody, compared to being used alone: EMT-6 syngeneic breast cancer model. The procedure: as §1, §2, §3, §4, §5, §6, §7, §8, §9, §10
FIG. 61 is a graph showing the mean tumor volume on different study days in the study groups as indicated according to Study 2 (EMT-6). The study end day was Day 27.

The next assay has as its system A20. As to the kind of experiment: A20 subcutaneous syngeneic lymphoma mouse model (Study 5), tumor growth inhibition. It is filed as in vivo, mouse (BALB/C). As to conditions: for TGI(%) / Tumor size (Mean ± SEM): A20 model, i.p., ARI compounds 160 mg/kg QD × 14 doses, Anti-PD-1 10 BIW × 4 doses, study end day Day 26. The procedure: as §1, §2, §3, §4, §5, §6, §7, §8, §9, §10
FIG. 64 is a graph showing the mean tumor volume on different study days in the study groups as indicated according to Study 5 (A20). The study end day was Day 26.

For the next assay, the system named is B16F10. Nature of the assay: B16F10 subcutaneous syngeneic melanoma mouse model (Study 10), tumor growth inhibition. The format is in vivo, mouse (C57BL/6). As to conditions: for Tumor size / TGI(%): B16F10 model, study end day Day 19; for Tumor size: Mean ± SEM, in mm³. The procedure: as §1, §2, §3, §4, §5, §6, §7, §8, §9, §10
FIG. 69 is a graph showing the mean tumor volume on different study days in the study groups as indicated according to Study 10 (B16F10). The study end day was Day 19.

Molecules are shown by their SMILES.

`CCC(=O)c1csc(C(=O)c2c[nH]c3ccccc23)n1` [ARI-002]: the “TGI(%)” value with CT26 is on record as 51%; in the assay on Hepa1-6, 37%; in the assay on Renca, 49%; with H22 it was 44%; in the assay on Pan02 it was 66%; in the assay on EMT-6, 55%. Moreover, the “TGI(%)” value with A20 is listed as 45%; in the assay with B16F10, 32%. The “Tumor size (Mean ± SEM)” value with CT26 is 1112.29 ± 124.36 mm^3; with Pan02, 308.02 ± 177.67 mm^3; with EMT-6 it was 842.08 ± 135.38 mm^3; with A20, 1446.75 ± 149.90 mm^3. The “anti-tumor potency of anti-PD-1 antibody combined with the compound, compared to the antibody alone” value in the assay with CT26 (CT-26 syngeneic colon cancer model), in the assay with Renca and in the assay with Pan02 was “statistically significant increase” each time. For the same compound, the Tumor size was found to be 1018.26 ± 232.72 in the assay with Hepa1-6, 1101.99 ± 92.71 in the assay on Renca, 1261.07 ± 203.55 in the assay with H22 and 1994.41 ± 180.33 with B16F10. For the same compound, the “anti-tumor potency of the compound combined with anti-PD-1 antibody, compared to being used alone” value in the assay on H22 (H22 syngeneic liver cancer model), with EMT-6 and in the assay with A20 (A20 syngeneic lymphoma tumor model) was “statistically significant increase” throughout. For the same compound, the “anti-tumor potency of anti-PD-1 antibody combined with the compound, compared to the antibody alone or the vehicle” value in the assay with EMT-6 and with B16F10 (B16F10 syngeneic melanoma model) was “statistically significant increase” each time.
Regarding `COC(=O)c1csc(C(=O)c2c[nH]c3ccccc23)n1` [ARI-001], the “TGI(%)” value is given as 56% with CT26; 27% with Hepa1-6; 36% with Renca; 50% in the assay with H22; 60% in the assay with Pan02; 53% with EMT-6. For the same compound, the “TGI(%)” value was 55% in the assay with A20 and 29% in the assay with B16F10. Moreover, the “Tumor size (Mean ± SEM)” value in the assay with CT26 is 1015.32 ± 114.50 mm^3; with Pan02 it was 357.19 ± 232.32 mm^3; with EMT-6 it was 871.63 ± 142.67 mm^3; in the assay on A20 it was 1190.08 ± 205.09 mm^3. The Tumor size in the assay with Hepa1-6 turned out to be 1174.25 ± 229.74; in the assay with Renca, 1367.52 ± 118.53; in the assay on H22, 1139.95 ± 207.21; in the assay on B16F10, 2089.97 ± 201.33. In addition, the “anti-tumor potency of the compound combined with anti-PD-1 antibody, compared to being used alone” value with Hepa1-6 (Hepa1-6 syngeneic liver cancer model) and in the assay with EMT-6 was “statistically significant increase” each time. Besides, the “anti-tumor potency of anti-PD-1 antibody combined with the compound, compared to the antibody alone” value in the assay with Renca and in the assay with Pan02 was “statistically significant increase” in each case. Moreover, in the assay on EMT-6, the “anti-tumor potency of anti-PD-1 antibody combined with the compound, compared to the antibody alone or the vehicle” value was “statistically significant increase”.
